Read-outs that look alike come from different tables or passages of the source.
Conditions: amide bond, 15-membered ring, DMF
[1] = DIEA (active ester), 0.88 mM, 4 steps
[2] = ONB active ester/DIEA, 1.06 mM, 5 steps

For `Cc1ccc(S(=O)(=O)NC(=N)NCCC[C@H]2NC(=O)[C@H](C)NC(=O)[C@H](Cc3c[nH]c4ccccc34)NC(=O)[C@@H](C)NC(=O)[C@H](Cc3ccccc3)NC2=O)cc1` [cyclo(-Ala-D-Arg(Tos)-Phe-D-Ala-Trp-)], the ring closure, yield after HPLC (from H-Trp-Ala-dArg(Tos)-Phe-dAla-OH, PyBOP/DIEA, 25.0 °C, 2 steps) was 21.8%.
`Cc1ccc(S(=O)(=O)NC(=N)NCCC[C@@H]2NC(=O)[C@H](Cc3ccccc3)NC(=O)[C@H](Cc3c[nH]c4ccccc34)NC(=O)[C@@H](C)NC(=O)[C@H](Cc3ccccc3)NC2=O)cc1` [cyclo(-Phe-Arg(Tos)-Phe-D-Ala-Trp-)] gave a ring closure, yield after HPLC (from H-Trp-Phe-Arg(Tos)-Phe-dAla-OH, PyBOP/DIEA, 25.0 °C, 2 steps) of 71.5%.
Compound `COc1cc(C)c(S(=O)(=O)NC(=N)NCCC[C@H]2NC(=O)[C@H](Cc3ccccc3)NC(=O)[C@H](Cc3c[nH]c4ccccc34)NC(=O)[C@@H](C)NC(=O)[C@H](Cc3ccccc3)NC2=O)c(C)c1C` [cyclo(-Phe-D-Arg(Mtr)-Phe-D-Ala-Trp-)] has a ring closure, yield after HPLC (from H-dAla-Trp-Phe-dArg(Mtr)-Phe-OH, PyBOP/DIEA, 1.0 mM, 25.0 °C, 2 steps) of 5.8%.
With `Cc1ccc(S(=O)(=O)NC(=N)NCCC[C@H]2NC(=O)[C@H](Cc3ccccc3)NC(=O)[C@H](Cc3c[nH]c4ccccc34)NC(=O)[C@@H](C)NC(=O)[C@H](Cc3ccc4ccccc4c3)NC2=O)cc1` [cyclo(-Phe-D-Arg(Tos)-Nal(2)-D-Ala-Trp-)] the ring closure, yield after HPLC (from H-Trp-Phe-dArg(Tos)-Nal(2)-dAla-OH, PyBOP/DIEA, 25.0 °C, 2 steps) was 15.5%.
Compound `Cc1ccc(S(=O)(=O)NC(=N)NCCC[C@H]2NC(=O)[C@H](Cc3ccccc3)NC(=O)[C@H](Cc3c[nH]c4ccccc34)NC(=O)[C@@H](C)NC(=O)[C@H](Cc3ccccc3)NC2=O)cc1` [cyclo(-Phe-D-Arg(Tos)-Phe-D-Ala-Trp-)] has a ring closure, yield after HPLC (from H-Trp-Phe-dArg(Tos)-Phe-dAla-OH, PyBOP/DIEA, 25.0 °C, 2 steps) of 10.8%.
With `Cc1ccc(S(=O)(=O)NC(=N)NCCC[C@H]2NC(=O)[C@H](Cc3ccccc3)NC(=O)[C@H](Cc3c[nH]c4ccccc34)NC(=O)[C@@H](CC(C)C)NC(=O)[C@H](Cc3ccccc3)NC2=O)cc1` [cyclo(-Phe-D-Arg(Tos)-Phe-D-Leu-Trp-)] the ring closure, yield after HPLC (from H-dLeu-Trp-Phe-dArg(Tos)-Phe-OH, PyBOP/DIEA, 25.0 °C, 2 steps) was 29.4%.
With `Cc1ccc(S(=O)(=O)NC(=N)NCCC[C@H]2NC(=O)[C@H](Cc3ccccc3)NC(=O)[C@H](Cc3c[nH]c4ccccc34)NC(=O)[C@@H](C)NC(=O)[C@H](Cc3ccc(Cl)cc3)NC2=O)cc1` [cyclo(-Phe-D-Arg(Tos)-pClPhe-D-Ala-Trp-)] the ring closure, yield after HPLC (from H-Trp-Phe-dArg(Tos)-pClPhe-dAla-OH, PyBOP/DIEA, 25.0 °C, 2 steps) was 50.5%.
For `Cc1ccc(S(=O)(=O)NC(=N)NCCC[C@H]2NC(=O)[C@H](Cc3ccccc3)NC(=O)[C@H](Cc3c[nH]c4ccccc34)NC(=O)[C@@H](C)NC(=O)[C@H](Cc3ccc(F)cc3)NC2=O)cc1` [cyclo(-Phe-D-Arg(Tos)-pFPhe-D-Ala-Trp-)], the ring closure, yield after HPLC (from H-Trp-Phe-dArg(Tos)-pFPhe-dAla-OH, PyBOP/DIEA, 25.0 °C, 2 steps) was 65.6%.
Work on `Cc1ccc(S(=O)(=O)NC(=N)NCCC[C@H]2NC(=O)[C@H](c3ccccc3)NC(=O)[C@H](Cc3ccccc3)NC(=O)[C@@H](C)NC(=O)[C@H](Cc3ccccc3)NC2=O)cc1` [cyclo(-Phg-D-Arg(Tos)-Phe-D-Ala-Phe-)] yielded a ring closure, yield after HPLC (from H-Phe-Phg-dArg(Tos)-Phe-dAla-OH, PyBOP/DIEA, 25.0 °C, 2 steps) of 13.1%.
With `Cc1ccc(S(=O)(=O)NC(=N)NCCC[C@H]2NC(=O)[C@H](c3ccccc3)NC(=O)[C@H](Cc3c[nH]c4ccccc34)NC(=O)[C@@H](C)NC(=O)[C@H](Cc3ccccc3)NC2=O)cc1` [cyclo(-Phg-D-Arg(Tos)-Phe-D-Ala-Trp-)] the ring closure, yield after HPLC (from H-dAla-Trp-Phg-dArg(Tos)-Phe-OH, PyBOP/DIEA, 25.0 °C, 2 steps) was 28.3%.
With `Cc1ccc(S(=O)(=O)NC(=N)NCCC[C@H]2NC(=O)[C@H](c3ccccc3)NC(=O)[C@H](Cc3c[nH]c4ccccc34)NC(=O)[C@@H](CO)NC(=O)[C@H](Cc3ccccc3)NC2=O)cc1` [cyclo(-Phg-D-Arg(Tos)-Phe-D-Ser-Trp-)] the ring closure, yield after HPLC (from H-dSer-Trp-Phg-dArg(Tos)-Phe-OH, PyBOP/DIEA, 25.0 °C, 2 steps) was 15.7%.
For `Cc1ccc(S(=O)(=O)NC(=N)NCCC[C@H]2NC(=O)[C@H](Cc3ccc(Cl)cc3)NC(=O)[C@H](Cc3c[nH]c4ccccc34)NC(=O)[C@@H](C)NC(=O)[C@H](Cc3ccccc3)NC2=O)cc1` [cyclo(-pClPhe-D-Arg(Tos)-Phe-D-Ala-Trp-)], the ring closure, yield after HPLC (from H-Trp-pClPhe-dArg(Tos)-Phe-dAla-OH, PyBOP/DIEA, 25.0 °C, 2 steps) was 7.5%.
For `Cc1ccc(S(=O)(=O)NC(=N)NCCC[C@H]2NC(=O)[C@H](Cc3ccc(F)cc3)NC(=O)[C@H](Cc3c[nH]c4ccccc34)NC(=O)[C@@H](C)NC(=O)[C@H](Cc3ccccc3)NC2=O)cc1` [cyclo(-pFPhe-D-Arg(Tos)-Phe-D-Ala-Trp-)], the ring closure, yield after HPLC (from H-Trp-pFPhe-dArg(Tos)-Phe-dAla-OH, PyBOP/DIEA, 25.0 °C, 2 steps) was 58.8%.
“cyclo (-Arg-D-Lys (COCH2 CH2 CH2 CH2 CH2 Ph)-Tyr-D-Trp-Leu-)” gave a ring closure, yield after HPLC (DIEA (active ester), 3.12 mM, 5 steps) of 26.8%.
Work on “cyclo(-Arg-D-Glu((2)-MeOPhp)-Tyr-D-Trp-Leu-)” yielded a ring closure, yield after HPLC (DIEA (active ester), 1.07 mM, 4 steps) of 9.2%.
“cyclo(-Arg-D-Glu((2)-Pyp)-Tyr-D-Trp-Leu-)” gave a ring closure, yield after HPLC (DIEA (active ester), 1.1 mM, 4 steps) of 12.1%.
With “cyclo(-Arg-D-Glu((4)-MeOPhp)-Tyr-D-Trp-Leu-)” the ring closure, yield after HPLC (DIEA (active ester), 1.07 mM, 5 steps) was 24.4%.
Work on cyclo(-Arg-D-Glu(Bzlp)-Tyr-D-Trp-Leu-) yielded a ring closure, yield after HPLC (DIEA (active ester), 1.09 mM, 4 steps) of 21.6%.
“cyclo(-Arg-D-Glu(NHCH2 CH2 Ph)-Asp (NHCH2 Ph)-D-Trp-Leu-)” gave a ring closure, yield after HPLC (DIEA (active ester), 2.67 mM, 5 steps) of 6.72%.
“cyclo(-Arg-D-Glu(NHCH2 CH2 Ph)-Lys(COPh)-D-Trp-Leu-)” gave a ring closure, yield after HPLC (DIEA (active ester), 3.63 mM, 5 steps) of 57.6%.
Work on “cyclo(-Arg-D-Glu(NHCH2 CH2 Ph)-Lys(COPh)-D-Trp-Phe-)” yielded a ring closure, yield after HPLC (ONB active ester/DIEA, 1.28 mM, 5 steps) of 5.7%.
Work on “cyclo(-Arg-D-Glu(NHCH2 CH2 Ph)-Lys(COPh)-D-Trp-Trp-)” yielded a ring closure, yield after HPLC (ONB active ester/DIEA, 0.93 mM, 5 steps) of 13.9%.
Compound “cyclo(-Arg-D-Glu(NHCH2 CH2 Ph)-Tyr-D-Trp-Leu-)” has a ring closure, yield after HPLC (DIEA (active ester), 0.9 mM, 4 steps) of 30.9%.
Work on “cyclo(-Arg-D-Glu(NHCH2 CH2 Ph)-Tyr-D-Trp-Phe-)” yielded a ring closure, yield after HPLC (ONB active ester/DIEA, 1.08 mM, 5 steps) of 37%.
Work on “cyclo(-Arg-D-Glu(NHCH2 CH2 Ph)-Tyr-D-Trp-Trp-)” yielded a ring closure, yield after HPLC (ONB active ester/DIEA, 1.33 mM, 5 steps) of 14.8%.
With “cyclo(-Arg-D-Glu(NHCH2 Nap(1))-Tyr-D-Trp-Leu-)” the ring closure, yield after HPLC [1] was 56.7%.
In the case of “cyclo(-Arg-D-Glu(NHCH2 Ph)-Tyr-D-Trp-Leu-)”, the ring closure, yield after HPLC (DIEA (active ester), 0.91 mM, 4 steps) is reported as 27.1%.
“cyclo(-Arg-D-Glu(NHCHPh2)-Tyr-D-Trp-Leu-)” showed a ring closure, yield after HPLC (DIEA (active ester), 0.86 mM, 4 steps) of 26.1%.
Work on cyclo(-Arg-D-Glu(Php)-Tyr-D-Trp-Leu-) yielded a ring closure, yield after HPLC [1] of 71.7%.
In the case of cyclo(-Arg-D-Lys(Ac)-Tyr-D-Trp-Leu-), the ring closure, yield after HPLC (ONB active ester/DIEA, 1.36 mM, 5 steps) is reported as 23.9%.
“cyclo(-Arg-D-Lys(COCH2 CH2 CH2 Ph)-Tyr-D-Trp-Leu-)” gave a ring closure, yield after HPLC (DIEA (active ester), 3.18 mM, 5 steps) of 28.7%.
Compound “cyclo(-Arg-D-Lys(COCH2 Ph)-Tyr-D-Trp-Leu-)” has a ring closure, yield after HPLC (ONB active ester/DIEA, 0.89 mM, 5 steps) of 30.6%.
cyclo(-Arg-D-Lys(CoPh)-Tyr-D-Trp-Leu-) gave a ring closure, yield after HPLC (ONB active ester/DIEA, 2.62 mM, 5 steps) of 32.7%.
In the case of “cyclo(-Arg-D-Lys(SO2 Nap(1))-Tyr-D-Trp-Leu-)”, the ring closure, yield after HPLC [2] is reported as 30%.
“cyclo(-Arg-D-Lys(SO2 Nap(2))-Trp-D-Trp-Leu-)” showed a ring closure, yield after HPLC (HONB/DCC preactivation, DIEA, 2.47 mM, 5 steps) of 27.1%.
cyclo(-Arg-D-Lys-Tyr-D-Trp-Leu-) showed a ring closure, yield after HPLC (HONB/DCC preactivation, DIEA, 0.94 mM, 5 steps) of 11.7%.
Work on cyclo(-Arg-D-Trp-Tyr-D-Trp-Leu-) yielded a ring closure, yield after HPLC (HONB/DCC preactivation, DIEA, 1.01 mM, 5 steps) of 11.5%.
cyclo(-Arg-Glu(Php)-Tyr-D-Trp-Leu-) gave a ring closure, yield after HPLC (DIEA (active ester), 1.1 mM, 5 steps) of 22.7%.
Work on “cyclo(-Arg-Lys(SO2 Nap(2))-Tyr-D-Trp-Leu-)” yielded a ring closure, yield after HPLC [2] of 48.3%.
For “cyclo(-D-Leu-Lys(SO2 Nap(1))-D-Tyr-Arg-D-Trp-)”, the ring closure, yield after HPLC (ONB active ester/DIEA, 3.3 mM, 5 steps) was 52.2%.
Compound “cyclo(-D-Tyr-Arg-D-Trp-Leu-D-Lys(SO2 Nap(1))-)” has a ring closure, yield after HPLC (DIEA (active ester), 3.28 mM, 5 steps) of 54.3%.
“cyclo(-Leu-D-Arg-Lys(SO2 Nap(1)-D-Tyr-Trp-)” gave a ring closure, yield after HPLC (DIEA, 1.1 mM, 5 steps) of 21.1%.
“cyclo(-Lys(isopropyl)-D-Glu(NHCH2 CH2 Ph)-Tyr-D-Lys(Nic)-Leu-)” gave a ring closure, yield after HPLC (ONB active ester/DIEA, 1.19 mM, 5 steps) of 44.3%.
In the case of cyclo(-Lys-D-Glu(Php)-Tyr-D-Trp-Leu-), the ring closure, yield after HPLC (DIEA (active ester), 1.11 mM, 5 steps) is reported as 23.5%.

— patent US6136781A, “LH-RH receptor antagonists” (Takeda Chemical Industries, Ltd., priority 1995, dated 2000)
